Results: PubChem BioAssay AID1259407 (Chemical Carcinogenesis Research Information System (CCRIS), 2018)
The source made the active and inactive calls. The rule behind the calls is not given here.

Test system: CCRIS mutagenicity, Ames/micronucleus/aberration tests
Assay: CCRIS mutagenicity studies
[1] = Test System: AMES SALMONELLA TYPHIMURIUM, Strain/Indicator: TA98, Metabolic Activation: NONE, Method: PREINCUBATION
[2] = Test System: AMES SALMONELLA TYPHIMURIUM, Strain/Indicator: TA100, Metabolic Activation: NONE, Method: PREINCUBATION
[3] = Test System: AMES SALMONELLA TYPHIMURIUM, Strain/Indicator: TA1535, Metabolic Activation: NONE, Method: PREINCUBATION

In the case of COC(=O)C12OC1(C)C(C)(O)OC2=O (stereo unspecified), the mutagenic call (Test System: AMES SALMONELLA TYPHIMURIUM, Strain/Indicator: TA98, Metabolic Activation: NONE, Method: DISK ASSAY) is reported as “inactive; negative”, the mutagenic call (Test System: AMES SALMONELLA TYPHIMURIUM, Strain/Indicator: TA98, Metabolic Activation: NONE, Method: STANDARD PLATE) is reported as “inactive; negative” and the mutagenic call (Test System: AMES SALMONELLA TYPHIMURIUM, Strain/Indicator: TA98, Metabolic Activation: RAT, LIVER, S-9, AROCLOR 1254, Method: DISK ASSAY) is reported as “inactive; negative”. The mutagenic call (Test System: AMES SALMONELLA TYPHIMURIUM, Strain/Indicator: TA98, Metabolic Activation: RAT, LIVER, S-9, AROCLOR 1254, Method: STANDARD PLATE) was “active; positive”, the mutagenic call (Test System: AMES SALMONELLA TYPHIMURIUM, Strain/Indicator: TA100, Metabolic Activation: NONE, Method: STANDARD PLATE) was “inactive; negative” and the mutagenic call (Test System: AMES SALMONELLA TYPHIMURIUM, Strain/Indicator: TA100, Metabolic Activation: RAT, LIVER, S-9, AROCLOR 1254, Method: STANDARD PLATE) was “inactive; negative”.
C=CC=O was tested, and the mutagenic call (End Point: IN VITRO CHROMOSOMAL ABERRATIONS, Test System: CHINESE HAMSTER OVARY CELLS, Metabolic Activation: NONE) was “inactive; negative”, the mutagenic call (End Point: IN VITRO CHROMOSOMAL ABERRATIONS, Test System: CHINESE HAMSTER OVARY CELLS, Metabolic Activation: RAT, LIVER, S-9, AROCLOR 1254) was “inactive; negative” and the mutagenic call [1] was “active; positive”. For the same molecule, the mutagenic call (Test System: AMES SALMONELLA TYPHIMURIUM, Strain/Indicator: TA100, Metabolic Activation: GLUTATHIONE, Method: PREINCUBATION) was “active; positive”, the mutagenic call [2] was “active; positive” and the mutagenic call (Test System: AMES SALMONELLA TYPHIMURIUM, Strain/Indicator: TA100, Metabolic Activation: RAT, LIVER, S-9, AROCLOR 1254, Method: PREINCUBATION) was “active; positive”. The mutagenic call (Test System: AMES SALMONELLA TYPHIMURIUM, Strain/Indicator: TA102, Metabolic Activation: NONE, Method: STANDARD PLATE) was “inactive; negative”, the mutagenic call (Test System: AMES SALMONELLA TYPHIMURIUM, Strain/Indicator: TA104, Metabolic Activation: GLUTATHIONE, Method: PREINCUBATION) was “active; positive” and the mutagenic call (Test System: AMES SALMONELLA TYPHIMURIUM, Strain/Indicator: TA104, Metabolic Activation: NONE, Method: PREINCUBATION) was “active; positive”. For the same molecule, the mutagenic call [3] was “inactive; negative”, the mutagenic call (Test System: AMES SALMONELLA TYPHIMURIUM, Strain/Indicator: TA1535, Metabolic Activation: RAT, LIVER, S-9, AROCLOR 1254, Method: PREINCUBATION) was “inactive; negative” and the mutagenic call (Test System: AMES SALMONELLA TYPHIMURIUM, Strain/Indicator: TA1537, Metabolic Activation: NONE, Method: PREINCUBATION) was “inactive; negative”. The mutagenic call (Test System: AMES SALMONELLA TYPHIMURIUM, Strain/Indicator: TA1537, Metabolic Activation: RAT, LIVER, S-9, AROCLOR 1254, Method: PREINCUBATION) was “inactive; negative”, the mutagenic call (Test System: AMES SALMONELLA TYPHIMURIUM, Strain/Indicator: TA1538, Metabolic Activation: NONE, Method: PREINCUBATION) was “inactive; negative” and the mutagenic call (Test System: AMES SALMONELLA TYPHIMURIUM, Strain/Indicator: TA1538, Metabolic Activation: RAT, LIVER, S-9, AROCLOR 1254, Method: PREINCUBATION) was “inactive; negative”. For the same molecule, the mutagenic call (Test System: AMES SALMONELLA TYPHIMURIUM, Strain/Indicator: TA2638, Metabolic Activation: NONE, Method: STANDARD PLATE) was “active; positive”, the mutagenic call (Test System: CHINESE HAMSTER OVARY, Strain/Indicator: AS52/6-THIOGUANINE, Metabolic Activation: NONE, Method: STANDARD PLATE) was “inactive; negative” and the mutagenic call (Test System: CHINESE HAMSTER OVARY, Strain/Indicator: CHO-K1-BH4 (HGPRT)/6-THIOGUANINE, Metabolic Activation: NONE) was “inactive; negative”. The mutagenic call (Test System: CHINESE HAMSTER OVARY, Strain/Indicator: CHO-K1-BH4 (HGPRT)/6-THIOGUANINE, Metabolic Activation: RAT, LIVER, S-9, AROCLOR 1254) was “inactive; negative”, the mutagenic call (Test System: CHINESE HAMSTER V-79, Strain/Indicator: V-79/6-THIOGUANINE, Metabolic Activation: NONE) was “active; positive” and the mutagenic call (Test System: E. COLI, Strain/Indicator: WP2 (PKM101), Metabolic Activation: NONE, Method: STANDARD PLATE) was “inactive; negative”. The mutagenic call (Test System: E. COLI, Strain/Indicator: WP2 UVRA (PKM101), Metabolic Activation: NONE, Method: STANDARD PLATE) was “inactive; negative” and the mutagenic call (Test System: E. COLI, Strain/Indicator: WP2 UVRA, Metabolic Activation: NONE, Method: PREINCUBATION) was “inactive; negative”.
CCC(C)(C)C was tested, and the mutagenic call (Test System: AMES SALMONELLA TYPHIMURIUM, Strain/Indicator: TA97, Metabolic Activation: HAMSTER, LIVER, S-9, AROCLOR 1254 (10 OR 30%), Method: PREINCUBATION) was “inactive; negative”, the mutagenic call (Test System: AMES SALMONELLA TYPHIMURIUM, Strain/Indicator: TA97, Metabolic Activation: NONE, Method: PREINCUBATION) was “inactive; negative” and the mutagenic call (Test System: AMES SALMONELLA TYPHIMURIUM, Strain/Indicator: TA97, Metabolic Activation: RAT, LIVER, S-9, AROCLOR 1254 (10 OR 30%), Method: PREINCUBATION) was “inactive; negative”. The mutagenic call (Test System: AMES SALMONELLA TYPHIMURIUM, Strain/Indicator: TA98, Metabolic Activation: HAMSTER, LIVER, S-9, AROCLOR 1254 (10%), Method: PREINCUBATION) was “inactive; negative”, the mutagenic call (Test System: AMES SALMONELLA TYPHIMURIUM, Strain/Indicator: TA98, Metabolic Activation: HAMSTER, LIVER, S-9, AROCLOR 1254 (30%), Method: DESICCATOR) was “inactive; negative” and the mutagenic call (Test System: AMES SALMONELLA TYPHIMURIUM, Strain/Indicator: TA98, Metabolic Activation: HAMSTER, LIVER, S-9, AROCLOR 1254 (30%), Method: PREINCUBATION) was “inactive; negative”. For the same molecule, the mutagenic call (Test System: AMES SALMONELLA TYPHIMURIUM, Strain/Indicator: TA98, Metabolic Activation: NONE, Method: DESICCATOR) was “inactive; negative”, the mutagenic call [1] was “inactive; negative” and the mutagenic call (Test System: AMES SALMONELLA TYPHIMURIUM, Strain/Indicator: TA98, Metabolic Activation: RAT, LIVER, S-9, AROCLOR 1254 (10%), Method: PREINCUBATION) was “inactive; negative”. For the same molecule, the mutagenic call (Test System: AMES SALMONELLA TYPHIMURIUM, Strain/Indicator: TA98, Metabolic Activation: RAT, LIVER, S-9, AROCLOR 1254 (30%), Method: DESICCATOR) was “inactive; negative”, the mutagenic call (Test System: AMES SALMONELLA TYPHIMURIUM, Strain/Indicator: TA98, Metabolic Activation: RAT, LIVER, S-9, AROCLOR 1254 (30%), Method: PREINCUBATION) was “inactive; negative” and the mutagenic call (Test System: AMES SALMONELLA TYPHIMURIUM, Strain/Indicator: TA100, Metabolic Activation: HAMSTER, LIVER, S-9, AROCLOR 1254 (10%), Method: PREINCUBATION) was “inactive; negative”. For the same molecule, the mutagenic call (Test System: AMES SALMONELLA TYPHIMURIUM, Strain/Indicator: TA100, Metabolic Activation: HAMSTER, LIVER, S-9, AROCLOR 1254 (30%), Method: DESICCATOR) was “inactive; negative”, the mutagenic call (Test System: AMES SALMONELLA TYPHIMURIUM, Strain/Indicator: TA100, Metabolic Activation: HAMSTER, LIVER, S-9, AROCLOR 1254 (30%), Method: PREINCUBATION) was “inactive; negative” and the mutagenic call (Test System: AMES SALMONELLA TYPHIMURIUM, Strain/Indicator: TA100, Metabolic Activation: NONE, Method: DESICCATOR) was “inactive; negative”. For the same molecule, the mutagenic call [2] was “inactive; negative”, the mutagenic call (Test System: AMES SALMONELLA TYPHIMURIUM, Strain/Indicator: TA100, Metabolic Activation: RAT, LIVER, S-9, AROCLOR 1254 (10%), Method: PREINCUBATION) was “inactive; negative” and the mutagenic call (Test System: AMES SALMONELLA TYPHIMURIUM, Strain/Indicator: TA100, Metabolic Activation: RAT, LIVER, S-9, AROCLOR 1254 (30%), Method: DESICCATOR) was “inactive; negative”. The mutagenic call (Test System: AMES SALMONELLA TYPHIMURIUM, Strain/Indicator: TA100, Metabolic Activation: RAT, LIVER, S-9, AROCLOR 1254 (30%), Method: PREINCUBATION) was “inactive; negative”, the mutagenic call (Test System: AMES SALMONELLA TYPHIMURIUM, Strain/Indicator: TA1535, Metabolic Activation: HAMSTER, LIVER, S-9, AROCLOR 1254 (10 OR 30%), Method: PREINCUBATION) was “inactive; negative” and the mutagenic call [3] was “inactive; negative”. For the same molecule, the mutagenic call (Test System: AMES SALMONELLA TYPHIMURIUM, Strain/Indicator: TA1535, Metabolic Activation: RAT, LIVER, S-9, AROCLOR 1254 (10 OR 30%), Method: PREINCUBATION) was “inactive; negative”.
